In ChEMBL document CHEMBL1155535, “Synthesis and biological evaluation of tricyclic anilinopyrimidines as IKKbeta inhibitors” (Bioorg Med Chem Lett, 2010):
≈ marks a conversion by molar mass, not a printed value.

Assays:
LoVo = assay: Cytotoxicity against human LoVo cells assessed as growth inhibition; assay type: functional, cell-based
[1] = target: T1, Inhibitor of nuclear factor kappa-B kinase subunit beta (Homo sapiens, UniProt O14920); assay: Inhibition of FLAG-tagged IKK-beta after 30 mins
T1 sequence (O14920 whole entry): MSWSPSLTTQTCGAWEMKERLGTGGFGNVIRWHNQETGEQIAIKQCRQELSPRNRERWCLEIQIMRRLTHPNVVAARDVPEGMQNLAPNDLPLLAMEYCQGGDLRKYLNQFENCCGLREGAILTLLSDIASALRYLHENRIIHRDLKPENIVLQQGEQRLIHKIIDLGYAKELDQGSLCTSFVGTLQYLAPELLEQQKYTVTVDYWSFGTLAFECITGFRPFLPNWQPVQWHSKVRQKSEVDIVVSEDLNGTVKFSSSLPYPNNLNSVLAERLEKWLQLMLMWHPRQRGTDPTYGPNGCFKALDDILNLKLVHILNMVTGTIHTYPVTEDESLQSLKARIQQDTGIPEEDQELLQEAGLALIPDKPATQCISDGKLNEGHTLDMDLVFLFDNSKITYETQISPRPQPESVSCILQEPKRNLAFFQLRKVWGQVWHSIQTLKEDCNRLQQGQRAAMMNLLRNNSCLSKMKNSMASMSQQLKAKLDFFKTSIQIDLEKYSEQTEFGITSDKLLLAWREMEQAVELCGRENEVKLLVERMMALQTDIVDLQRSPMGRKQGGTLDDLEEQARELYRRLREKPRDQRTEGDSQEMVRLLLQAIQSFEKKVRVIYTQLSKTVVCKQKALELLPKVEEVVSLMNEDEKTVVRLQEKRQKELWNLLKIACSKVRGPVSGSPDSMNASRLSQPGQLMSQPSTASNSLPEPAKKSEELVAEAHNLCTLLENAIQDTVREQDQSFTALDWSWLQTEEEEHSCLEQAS

[2] = target: T1, Inhibitor of nuclear factor kappa-B kinase subunit beta; assay: Inhibition of IKK-beta expressed in human HeLa cells transfected with pNFkappaB-luciferase assessed inhibition of TNF-alpha-induced NF-kappaB expression by luciferase reporter gene assay; assay type: cell-based
[3] = Aqueous solubility in at pH 7.4
[4] = Membrane permeability by PAMPA assay
[5] = Apparent permeability from basolateral to apical side in human Caco-2 cells
[6] = Apparent permeability from apical to basolateral side in human Caco-2 cells

| Compound | IC50 [1] [nM] | IC50 [2] [nM] | solubility [3] [µg/mL] | Papp [4] [×10⁻⁶ cm/s] | Papp B→A [5] [×10⁻⁶ cm/s] | Papp A→B [6] [×10⁻⁶ cm/s] | IC50 (LoVo) [nM] |
| --- | --- | --- | --- | --- | --- | --- | --- |
| NS(=O)(=O)c1ccc(Nc2nccc(-c3ccc(NC(=O)Cc4ccccc4)cc3)n2)cc1 | 50 | 4470 | 1 (≈ 2.18 µM) | < 0.01 |  |  | 180 |
| NS(=O)(=O)c1ccc(Nc2nccc(-c3ccccc3)n2)cc1 | 20200 |  | 1 (≈ 3.06 µM) | 2.26 |  |  | 3280 |
| NS(=O)(=O)c1ccc(Nc2ncc3c(n2)-c2ccsc2CC3)cc1 | 790 | 800 | < 1 | 0.38 | 20.7 | 34 | 330 |
| NS(=O)(=O)c1ccc(Nc2ncc3c(n2)-c2ccc(NC(=O)C4CCCC4)cc2CC3)cc1 | 2200 | 1570 |  |  |  |  | 830 |
| CC(C)=CC(=O)Nc1ccc2c(c1)CCc1cnc(Nc3ccc(S(N)(=O)=O)cc3)nc1-2 | 1590 | 8250 |  |  |  |  | 560 |
| CC(C)C(=O)Nc1ccc2c(c1)CCc1cnc(Nc3ccc(S(N)(=O)=O)cc3)nc1-2 | 1110 | 1460 |  |  |  |  | 660 |
| NS(=O)(=O)c1ccc(Nc2nccc(-c3ccsc3)n2)cc1 | 180 | 1700 |  |  |  |  | 2620 |
| CC(C)(C)CC(=O)Nc1ccc2c(c1)CCc1cnc(Nc3ccc(S(N)(=O)=O)cc3)nc1-2 | 820 | 1360 | 9 (≈ 19.3 µM) | 2.3 |  |  | 370 |
| O=S(=O)(NCCO)c1ccc(Nc2nccc(-c3ccsc3)n2)cc1 | 130 | 3390 |  |  |  |  | 4110 |
| CC(C)CC(=O)Nc1ccc2c(c1)CCc1cnc(Nc3ccc(S(N)(=O)=O)cc3)nc1-2 | 1940 | 6400 |  |  |  |  | 380 |
| CN(C)CCNS(=O)(=O)c1ccc(Nc2ncc3c(n2)-c2ccsc2CC3)cc1 | 770 | 510 | 36 (≈ 83.8 µM) | 1.54 | 3.08 | < 1 | 680 |

Now from value to compound, other results behind:

| IC50 [1] [nM] | IC50 [2] [nM] | solubility [3] [µg/mL] | Papp [4] [×10⁻⁶ cm/s] | Papp B→A [5] [×10⁻⁶ cm/s] | Papp A→B [6] [×10⁻⁶ cm/s] | Compound | IC50 (LoVo) [nM] |
| --- | --- | --- | --- | --- | --- | --- | --- |
| 780 | 620 |  |  |  |  | CN(C)CCCNS(=O)(=O)c1ccc(Nc2ncc3c(n2)-c2ccsc2CC3)cc1 | 1100 |
| 1830 | 1430 | 7 (≈ 19.9 µM) | 2.92 |  |  | NS(=O)(=O)c1ccc(Nc2ncc3c(n2)-c2ccccc2CC3)cc1 | 1050 |
| 40 | 640 | 2.3 (≈ 6.45 µM) | < 0.01 |  |  | COc1ccc(-c2ccnc(Nc3ccc(S(N)(=O)=O)cc3)n2)cc1 | 2550 |
|  | 4060 |  |  |  |  | NS(=O)(=O)c1ccc(Nc2ncc3c(n2)-c2ccccc2CCC3)cc1 | 4180 |
| 1220 | 1960 |  |  |  |  | O=S(=O)(NCCO)c1ccc(Nc2ncc3c(n2)-c2ccsc2CC3)cc1 | 800 |
| 170 | 1060 |  |  |  |  | CN(C)CCCNS(=O)(=O)c1ccc(Nc2nccc(-c3ccsc3)n2)cc1 | 3380 |
| 510 | 830 | 6 (≈ 12.2 µM) | 0.51 |  |  | NS(=O)(=O)c1ccc(Nc2ncc3c(n2)-c2ccc(NC(=O)Cc4cccs4)cc2CC3)cc1 | 290 |
| 1830 | 1600 |  |  |  |  | COc1ccc(CC(=O)Nc2ccc3c(c2)CCc2cnc(Nc4ccc(S(N)(=O)=O)cc4)nc2-3)cc1 | 730 |
| 550 | 420 | < 1 | 1.8 |  |  | COc1ccc2c(c1)CCc1cnc(Nc3ccc(S(N)(=O)=O)cc3)nc1-2 | 750 |
| 20 | 6910 | < 1 | 0.3 |  |  | NS(=O)(=O)c1ccc(Nc2nccc(-c3ccc(NC(=O)Cc4cccs4)cc3)n2)cc1 | 250 |
| 10 | 2460 | < 1 | 0.6 |  |  | CC(C)(C)CC(=O)Nc1ccc(-c2ccnc(Nc3ccc(S(N)(=O)=O)cc3)n2)cc1 | 790 |
| 2380 | 1790 | 9 (≈ 18.5 µM) | 3.37 |  |  | NS(=O)(=O)c1ccc(Nc2ncc3c(n2)-c2ccc(NC(=O)Cc4ccccc4)cc2CC3)cc1 | 190 |
| 280 |  |  |  |  |  | COC(=O)CC(=O)Nc1ccc2c(c1)CCc1cnc(Nc3ccc(S(N)(=O)=O)cc3)nc1-2 | 620 |
| 310 | 970 |  |  |  |  | NS(=O)(=O)c1ccc(Nc2ncc3c(n2)-c2ccc(NC(=O)Cc4ccsc4)cc2CC3)cc1 | 490 |
| 230 | 770 | > 100 | 2.4 | 13.2 | < 1 | CN(C)CCNS(=O)(=O)c1ccc(Nc2nccc(-c3ccsc3)n2)cc1 | 2810 |
| 19 | 1710 | 3 (≈ 8.66 µM) |  |  |  | Cc1ccc(-c2ccnc(Nc3ccc(S(N)(=O)=O)cc3)n2)s1 | 1660 |
| 2230 |  |  |  |  |  | NS(=O)(=O)c1ccc(Nc2ncc3c(n2)-c2ccc(NC(=O)c4ccco4)cc2CC3)cc1 | 1060 |
